Legend:
Type in all cases: cell-based, human
[1] = test system: Oct3/4-GFP+MCF7 cells versus unfractionated MCF7 cells; experiment: Differential chemotherapeutic responses, viable adherent cell counts by trypan blue exclusion; details: FIG. 6; viable adherent cells over time
Experimental: FIG. 6. Differential chemotherapeutic responses of MCF7 and Oct3/4-GFP+MCF7 cells. 10^5 unfractionated, MCF7 cells (dotted line) or Oct3/4GFP+MCF7 cells (broken line) were seeded into 6 well plates and allowed to achieve ca. 30-50% confluence. The indicated concentrations of adriamycin, etoposide, 5-fluorouracil, cis-platinum, methotrexate, and taxol were then added (day 0). The total number of viable adherent cells was then determined at the indicated times by trypan blue exclusion. […] Note that in most cases Oct4/4-GFP+MCF7 actually grew in the presence of all agents. These experiments were repeated at least two additional times with similar outcomes.
Differential chemosensitivities of Oct3/4-GFP+MCF7 cells. It is believed that CSCs are more resistant to chemotherapeutic agents than TACs, thus at least partly accounting for the propensity of many tumors to relapse after an initial response. To test this idea, MCF7 cells and Oct3/4-GFP+MCF7 CSCs were exposed to six different chemotherapeutic agents commonly employed to treat breast cancer.

Oct3/4-GFP+ MCF7 cells = experiment: Screen for selective inhibition of Oct3/4-GFP+MCF7 cells (GFP level / cell viability, 384 well plates); details: initial screen; 3 day exposure, 5 μM, triplicate samples, relative changes in GFP levels
Experimental: MCF7 cells were used as the target population. Control cells consisted of Oct3/4-GFP-cells that were infected with a GFP-expressing lentivirus as a way of controlling for GFP expression. Initial screenings were performed in 384 well plates on triplicate samples. A fluorescent plate reader was used to quantify relative changes in GFP levels after a 3 day exposure to a 5 μM concentrations of each compound. […] These experiments were performed in 12 well plates in which 2000 cells/well were initially seeded and allowed to attach for one day. The following day (day 0), the medium was replaced with fresh medium containing the indicated concentrations of each compound. Cell counts were then performed manually on triplicate wells. Bars represent standard errors.
The cell viability assay was performed as follows:
Trypsinize cell and resuspend in MCF7 culture medium at a density of 4×10^4/ml Culture medium: alpha MEM, 10% FBS, 2 mM Glutamine, 1 mM Sodium Pyruvate, 1 mM non-essential amino acids, 100 U/ml Penicillin/Streptomycin
(1) dilute compounds to 30 μM using alpha MEM
(2) add 5 μl compounds to each well (final concentration 5 μM)
(3) add 25 μl cell suspension to each well (1000 cells/well)
(4) incubate cells with compounds for 72 hours at 37° C., 5% CO2
3. […] The plates were then read on SpectraMax M5 Microplate Reader using the wavelength of excitation 560 nm/emission 590 nm.

[2] = test system: MCF7 cells and Oct3/4-GFP+MCF7 cell population; experiment: Hoechst 33342 side population (SP) exclusion; details: exposure to 20 μM Reserpine; SP fractions of MCF7 and Oct3/4-GFP+MCF7 cells
Experimental: In other studies, Oct3/4-GFP+MCF7 cells were examined by qRT-PCR for expression of the breast cancer CSC markers CD133 and Oct3/4. After normalizing to GAPDH, the ratios of these transcripts in Oct3/4-GFP+MCF7 cells and non-CSC-MCF7 cells were 6.3 for CD 133 and 2.5 for Oct3/4. […] The SP is due to CSCs ability to exclude the dye Hoechst 33342 and reflects high expression of ABCG2 transporters such as MDR1 and BRCP. […] These fractions could also be reduced by >70% following exposure to 20 μM Reserpine, which inhibits ABC transporters. Moreover, the overall mean fluorescence intensity of the entire Oct3/4-GFP+MCF population was two-fold lower than that of the MCF7population. Thus, based on independent qRT-PCR assessments of CSC gene expression profiles and on uptake/exclusion of Hoechst 33342, one can conclude that the Oct3/4-GFP+MCF7 population consists of highly enriched and stable cells that are unable to differentiate into TACs.

Row | Compound | selectivity for Oct3/4-GFP+MCF7 cells over control GFP-lentivirus cells (Oct3/4-GFP+ MCF7 cells) | other results
1 | CC(=O)O[C@H]1C(=O)[C@@]2(C)[C@H]([C@H](OC(=O)c3ccccc3)[C@]3(O)C[C@H](OC(=O)[C@H](O)[C@@H](NC(=O)c4ccccc4)c4ccccc4)C(C)=C1C3(C)C)[C@]1(OC(C)=O)CO[C@@H]1C[C@@H]2O [taxol] |  | sensitivity/resistance of Oct3/4-GFP+MCF7 cells relative to MCF7 cells [1]: significantly more sensitive
2 | CC(=O)c1c(O)c(C)c(O)c(Cc2c(O)c3c(c(C(=O)/C=C/c4ccccc4)c2O)OC(C)(C)C=C3)c1O [Rottlerin, 5,7-dihydroxy-2,2-dimethyl-6-(2,4,6-trihydroxy-3-methyl-5-acetylbenzyl)-8-cinnamoyl-1,2-chromene] | potentially selective agents | 
3 | Cl.NC[C@@H]1O[C@H](C23CC4CC(CC(C4)C2)C3)Cc2c1ccc(O)c2O [A77636] | potentially selective agents | 
4 | COC(=O)[C@H]1[C@H]2C[C@@H]3c4[nH]c5cc(OC)ccc5c4CCN3C[C@H]2C[C@@H](OC(=O)c2cc(OC)c(OC)c(OC)c2)[C@@H]1OC [Reserpine] |  | reduction of side population (SP) fractions [2]: > 70%
